Structures are written as SMILES.

Experimental findings from patent publication EP0372603A2, “Antibacterial oral composition” (Colgate-Palmolive Company, priority 1988, dated 1990) are described below.

Assay [1] relates to in vitro plaque which is formed by Actinomyces viscosus and strep mutans on extracted human teeth. The experiment in a line: Antiplaque effect on in vitro plaque on extracted human teeth (visual score and erythrosine dye extraction). It counts as cell-based. As to the method:
The antiplaque effect of chlorhexidine in the presence of aminoguanidine is determined by rinsing in vitro plaque which is formed by Actinomyces viscosus and strep mutans on extracted human teeth for 30 seconds once per day for three days with the full strength rinses below. The plaque growth is induced on teeth by daily transferring the teeth to an inoculated fresh medium (tryptocase soy broth). The amount of plaque is scored visually as well as after disclosing with erythrosine dye. The dye is then extracted with ethanol. The amount of the dye adsorbed is directly proportional to the amount of the plaque on teeth. The dye concentration is measured spectrophotometrically at wavelength 533nm.

The subject of assay [2] is Actinomyces viscosus cells. Nature of the assay: Antibacterial effect: full strength rinses exposed to cells for 60 seconds, CFU count. It counts as cell-based. As to the method:
The antibacterial effect of chlorhexidine in the presence of aminoguanidine is determined by exposing the following full strength rinses to Actinomyces viscosus cells for 60 seconds.

A short description of assay [3]: In vitro stain retention on hydroxyapatite (bovine serum albumin/acetaldehyde browning model). The conditions noted are these: 0.12, 0.25 and 1.0% of aminoguanidine gluconate with 0.12% CHX. The method, then:
The following in vitro method correlates with and simulates the reaction whereby hydroxyapatite tooth mineral material is stained brown:
2.0 g hydroxyapatite (HAP), 10 ml of 25% Bovine Serum Albumin in 0.1M phosphate buffer (pH 7.0), 2.5 ml of 0.1M phosphate buffer containing mono-basic and di-basic sodium orthophosphate (pH 7), 25.0 ml of a test sample and 12.5 ml of 30% buffered acetaldehyde (pH 7) are mixed for 24 hrs. at 37 °C. The HAP is filtered and dried at 37 °C. The color retained on the HAP powder is qualified with a Gardner Color Difference Meter.

Assay [4] is described as follows: Gingivitis/plaque/stain evaluation in monkeys sprayed with rinse once daily for 6 weeks. It counts as in vivo, squirrel monkeys. Also on record: key to Final Gingival Index: 0 = clinically normal gingiva to 4 = obvious redness with bleeding; Initial Stain Index / Final Stain Index: scale not given here. The conditions noted are these: for Final Gingival Index: once daily spray 30 seconds; for Initial Gingival Index: baseline before treatment, scale 0-4; for Initial Plaque Index: modified Quigley-Hein index. The method, then: Adult squirrel monkeys are prepared for a gingivitis/plaque/stain evaluation including thorough prophylaxis. 36 surfaces (maxillary and mandibular; mesial, buccal and distal) are initially evaluated for plaque by a modified Quigley-Hein index and gingival inflation by the following scale: 0 - clinically normal; pink, form, knife-like gingival margin, triangular interdental papilla; 1 - change in the form of gingiva; gingival margin may be slightlyenlarged, no longer knife-like and firm, no color change; 2 - slight color change of marginal gingiva of interdental papilla, discrete areas of redness at most cornal surfaces of the free gingiva; 3- obvious color change in marginal gingiva or interdental papilla, no bleeding on probing; 4 - obvious color change; redness obvious; in addition, bleeding on probing or spontaneous bleeding.
The squirrel monkeys are then divided into 3 groups of four and each is treated in a double blind manner once daily for 6 weeks. All dentitions are sprayed for 30 seconds from polyethylene bottles containing rinse solution.
Initial and 6 week evaluations for three studies for plaque formation and gingival inflamation and 6 week evaluations for stain (indicate general protocol) follow, with stain TABLE 4

As to `N=C(N)NN` [Aminoguanidine, Hydrazine Carboximidamide (aminoguanidine)], in assay [1] (0.25% Aminoguanidine alone), the “antiplaque activity (in words)” value is “no antiplaque activity”. Besides, in assay [1] (0.25% Aminoguanidine with CHX), the “effect on antiplaque activity of chlorhexidine (in words)” value is “does not compromise the antiplaque activity of chlorhexidine”. Besides, in assay [2] (0.25% Aminoguanidine alone), the “antibacterial effect (in words)” value is “no antibacterial effect”. Moreover, the “effect on antibacterial activity of chlorhexidine (in words)” value in assay [2] (0.25% Aminoguanidine with CHX) is on record as “does not compromise antibacterial activity of chlorhexidine”. Besides, the “chlorhexidine induced stain (in words)” value in assay [3] is “reduces the chlorhexidine induced stain at least to about the level of the placebo”.

For the compound `[H]/N=C(\N/C(=N/[H])NCCCCCCNC(=N)NC(=N)Nc1ccc(Cl)cc1)Nc1ccc(Cl)cc1` [CHX, chlorhexidine gluconate], the “Final Plaque Index” value in assay [4] (Study A, after 6 weeks) amounted to 1.24; in assay [4] (Study B, after 6 weeks), 0.47; in assay [4] (Study C, after 6 weeks) it was 0.83. Moreover, the “Final Gingival Index” value in assay [4] (Study A, after 6 weeks) is listed as 0.49; in assay [4] (Study B, after 6 weeks), 0.47; in assay [4] (Study C, after 6 weeks), 0.63. In addition, the “Initial Gingival Index” value is reported as 0.43 in assay [4] (Study A), 0.54 in assay [4] (Study B) and 0.56 in assay [4] (Study C). Moreover, the “Initial Plaque Index” value in assay [4] (Study A, baseline) is reported as 0.55; in assay [4] (Study B, baseline), 0.15; in assay [4] (Study C, baseline) it was 0.53. Also, in assay [4] (Study B, after 6 weeks), the “Final Stain Index” value is given as 0.62. Besides, the “Initial Stain Index” value in assay [4] (Study B, baseline) worked out at 0.01.
